Results on 19 molecules are retold here after US10738062B2, “Chromane-substituted tetracyclic compounds and uses thereof for the treatment of viral diseases” (Merck Sharp & Dohme Corp., priority 2016, dated 2020).

Design in all cases: species or system Hepatitis C virus
The subject of one experiment is HCV replicon 1A. The experiment in a line: Cell-based HCV replicon assay (Replicon Assay A), replicon 1A. The note with it: replicon RNA by real time PCR, day 3. The gist of the method:
(§1)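 Replicon cells were seeded at 2000/well with compound, 10 serial dilutions starting at 333.3 nM to 1.667 nM, in 0.5% DMSO and 5% FBS, then harvested on day 3. Replicon RNA was measured by multiplex TaqMan RT-PCR with cyclophilin as endogenous control. EC50 is the concentration raising Ct by 1 over projected baseline.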

In a further experiment the test system is HCV replicon 1B. The experiment is described as follows: Cell-based HCV replicon assay (Replicon Assay B), replicon 1B. The note with it: replicon RNA by real-time PCR, 3 days. The method, then:
In an alternate assay (“Replicon Assay B”), 1000 cells were seeded per well in a 384-well collagen coated black plate from Greiner bio-one (Cat #781946) in 5% FBS. Inhibitors of this invention were added at 24 h post-seeding, and the plates were incubated for 3 days. Cells were subsequently lysed with Qiagen lysis buffer (Cat #1062731) to extract the RNA. HCV replicon RNA level was measured by real-time PCR using the RNA-to-CT kit from Applied Biosystem (Cat #4392656) and genotype-specific primers and probes. The amplicon was located within NS5B. […] (SEQ. ID NO. 2); the probe sequence was FAM-labeled […] (SEQ. ID NO. 3).
The real-time RT-PCR reactions were run on ABI PRISM 7900HT or Viia7 Sequence Detection System using the following program: 48° C. for 30 minutes, 95° C. for 10 minutes, 40 cycles of 95° C. for 15 sec, 60° C. for 1 minutes.
EC50 data for replicons 1A, 1AY93H and 2B were obtained using Replicon Assay A and EC50 data for replicon 1B was obtained using Replicon Assay B.

The next experiment deals with HCV replicon 2B. The experiment is described as follows: Cell-based HCV replicon assay (Replicon Assay A), replicon 2B. The note with it: replicon RNA by real time PCR, day 3. The gist of the method:
as §1
A general note: Replicon systems follow genome replication, usually without infectious particles.

For another experiment, the system named is HCV replicon 1A Y93H. The experiment in a line: Cell-based HCV replicon assay (Replicon Assay A), replicon 1AY93H. To be noted: replicon RNA by real time PCR, day 3. A digest of the protocol: as §1
Where [1] appears, read: read-out: EC50 replicon 2B, Replicon Assay A.
Where [2] appears, read: read-out: EC50 replicon 1A Y93H, Replicon Assay A.
[3] abbreviates: Hepatitis C virus, 72 h, read-out: EC50 replicon 2B, Replicon Assay A.

pEC50: −log10 of the molar value. Read-outs that look alike come from different tables or passages of the source.

Broadly, the pEC50 is −log10 of the EC50, conventionally taken in molar units. On to `COC(=O)N[C@H](C(=O)N1CCC[C@H]1c1ncc(-c2cc(F)c3c(c2)OC(c2ccc4c(c2)OCCC4C)n2c-3cc3cc(-c4cnc([C@@H]5CCCN5C(=O)[C@@H](NC(=O)OC)C(C)C)[nH]4)ccc32)[nH]1)C(C)C` (single isomer, unassigned) [Compound 8], for which the pEC50 was 11.68 in the experiment on HCV replicon 1A; 11.96 with HCV replicon 1B (Hepatitis C virus, 72 h); 10.39 with HCV replicon 2B (setting [1]); 10.42 in the experiment on HCV replicon 1A Y93H (setting [2]).
Regarding `COC(=O)N[C@H](C(=O)N1CCC[C@H]1c1ncc(-c2cc(F)c3c(c2)OC(c2ccc4c(c2)OCCC4C)n2c-3cc3cc(-c4cnc([C@@H]5CCCN5C(=O)[C@@H](NC(=O)OC)C(C)C)[nH]4)ccc32)[nH]1)C(C)C` (single isomer, unassigned) [Compound 10], the pEC50 in the experiment with HCV replicon 1A was 11.62; with HCV replicon 1B, 11.92; with HCV replicon 2B (setting [1]), 10.39; in the experiment on HCV replicon 1A Y93H (setting [2]) it was 10.41.
With `COC(=O)N[C@H](C(=O)N1CCC[C@H]1c1ncc(-c2cc(F)c3c(c2)OC(c2ccc4c(c2)OC(C)CC4)n2c-3cc3cc(-c4cnc([C@@H]5CCCN5C(=O)[C@@H](NC(=O)OC)C(C)C)[nH]4)ccc32)[nH]1)C(C)C` (single isomer, unassigned) [Compound 13], the pEC50 in the experiment with HCV replicon 1A is 11.64; in the experiment on HCV replicon 1B (Hepatitis C virus, 72 h) it was 11.49; in the experiment on HCV replicon 2B (setting [1]) it was 9.84; in the experiment on HCV replicon 1A Y93H (setting [2]), 9.97.
As for `COC(=O)N[C@H](C(=O)N1CCC[C@H]1c1ncc(-c2cc(F)c3c(c2)OC(c2ccc4c(c2)OC(C)CC4)n2c-3cc3cc(-c4cnc([C@@H]5CCCN5C(=O)[C@@H](NC(=O)OC)C(C)C)[nH]4)ccc32)[nH]1)C(C)C` (single isomer, unassigned) [Compound 14], the pEC50 is 11.74 in the experiment with HCV replicon 1A, 11.59 with HCV replicon 1B, 9.79 in the experiment on HCV replicon 2B (setting [1]) and 9.92 in the experiment with HCV replicon 1A Y93H (setting [2]).
`COC(=O)N[C@H](C(=O)N1CCC[C@H]1c1ncc(-c2cc(F)c3c(c2)OC(c2ccc4c(c2)OCCC4(F)F)n2c-3cc3cc(-c4cnc([C@@H]5CCCN5C(=O)[C@@H](NC(=O)OC)C(C)C)[nH]4)ccc32)[nH]1)C(C)C` (single isomer, unassigned) [Compound 20]: the negative-log EC50 (pEC50) with HCV replicon 1A was 11.89; in the experiment on HCV replicon 1B (Hepatitis C virus, 72 h), 11.85; with HCV replicon 2B (setting [1]) it was 10.40; in the experiment with HCV replicon 1A Y93H (setting [2]), 10.17.
The matching figures for `COC(=O)N[C@H](C(=O)N1CCC[C@H]1c1ncc(-c2cc(F)c3c(c2)OC(c2ccc4c(c2)OC(C)(C)C4)n2c-3cc3cc(-c4cnc([C@@H]5CCCN5C(=O)[C@@H](NC(=O)OC)C(C)C)[nH]4)ccc32)[nH]1)C(C)C` (single isomer, unassigned) [Compound 28]: 11.77, 11.68, 9.98 and 10.49.
For `COC(=O)N[C@H](C(=O)N1CCC[C@H]1c1ncc(-c2cc(F)c3c(c2)OC(c2ccc4c(c2)OCCC4)n2c-3cc3cc(-c4cnc([C@@H]5CCCN5C(=O)[C@@H](NC(=O)OC)C5CCOCC5)[nH]4)ccc32)[nH]1)C(C)C` (single isomer, unassigned) [Compound 31], the pEC50 is 11.82 with HCV replicon 1A (Hepatitis C virus, 72 h); 11.66 in the experiment on HCV replicon 1B (Hepatitis C virus, 72 h); 10.01 with HCV replicon 2B (setting [1]); 9.49 in the experiment with HCV replicon 1A Y93H (setting [2]).
Consider `COC(=O)N[C@H](C(=O)N1CCC[C@H]1c1ncc(-c2cc(F)c3c(c2)OC(c2ccc4c(c2)OCCC4)n2c-3cc3cc(-c4cnc([C@@H]5CCCN5C(=O)[C@@H](NC(=O)OC)C5CCOCC5)[nH]4)ccc32)[nH]1)C(C)C` (single isomer, unassigned) [Compound 32], for which the pEC50 with HCV replicon 1A is 11.59; with HCV replicon 1B, 11.59; with HCV replicon 2B (setting [1]), 11.52; in the experiment with HCV replicon 1A Y93H (setting [2]), 11.00.
`COC(=O)N[C@H](C(=O)N1CCC[C@H]1c1ncc(-c2ccc3c(c2)cc2n3C(c3ccc4c(c3)OCCC4)Oc3cc(-c4cnc([C@@H]5CCCN5C(=O)[C@@H](NC(=O)OC)C5CCOCC5)[nH]4)cc(F)c3-2)[nH]1)C(C)C` (single isomer, unassigned) [Compound 33]: the negative-log EC50 (pEC50) with HCV replicon 1A (Hepatitis C virus, 72 h) was 11.74; in the experiment on HCV replicon 1B (Hepatitis C virus, 72 h), 11.68; in the experiment with HCV replicon 2B (setting [1]), 9.94; in the experiment with HCV replicon 1A Y93H (setting [2]), 9.22.
For `COC(=O)N[C@H](C(=O)N1CCC[C@H]1c1ncc(-c2ccc3c(c2)cc2n3C(c3ccc4c(c3)OCCC4)Oc3cc(-c4cnc([C@@H]5CCCN5C(=O)[C@@H](NC(=O)OC)C5CCOCC5)[nH]4)cc(F)c3-2)[nH]1)C(C)C` (single isomer, unassigned) [Compound 34], the negative logarithm of the EC50 (pEC50) with HCV replicon 1A was 11.68; with HCV replicon 1B, 11.52; with HCV replicon 2B (setting [1]), 11.30; in the experiment with HCV replicon 1A Y93H (setting [2]) it was 11.10.
With `COC(=O)N[C@H](C(=O)N1CCC[C@H]1c1ncc(-c2cc(F)c3c(c2)OC(c2ccc4c(c2)CCCO4)n2c-3cc3cc(-c4cnc([C@@H]5CCCN5C(=O)[C@@H](NC(=O)OC)C5CCOCC5)[nH]4)ccc32)[nH]1)C(C)C` (single isomer, unassigned) [Compound 35], the negative logarithm of the EC50 (pEC50) was 11.47 in the experiment on HCV replicon 1A (Hepatitis C virus, 72 h); 11.92 in the experiment with HCV replicon 1B (Hepatitis C virus, 72 h); 9.59 in the experiment with HCV replicon 2B (setting [3]); 10.21 in the experiment on HCV replicon 1A Y93H (setting [2]).
Consider `CCO[C@H](C)[C@H](NC(=O)OC)C(=O)N1CCC[C@H]1c1ncc(-c2cc(F)c3c(c2)OC(c2ccc4c(c2)OCCC4)n2c-3cc3cc(-c4cnc([C@@H]5CCCN5C(=O)[C@@H](NC(=O)OC)C(C)C)[nH]4)ccc32)[nH]1` (single isomer, unassigned) [Compound 39], for which the pEC50 is 11.77 in the experiment with HCV replicon 1A (Hepatitis C virus, 72 h); 11.85 with HCV replicon 1B (Hepatitis C virus, 72 h); 9.04 in the experiment on HCV replicon 2B (setting [1]); 8.47 in the experiment on HCV replicon 1A Y93H (setting [2]).
Turning to `CCO[C@H](C)[C@H](NC(=O)OC)C(=O)N1CCC[C@H]1c1ncc(-c2cc(F)c3c(c2)OC(c2ccc4c(c2)OCCC4)n2c-3cc3cc(-c4cnc([C@@H]5CCCN5C(=O)[C@@H](NC(=O)OC)C(C)C)[nH]4)ccc32)[nH]1` (single isomer, unassigned) [Compound 40], the pEC50 was 11.68 in the experiment with HCV replicon 1A, 11.66 in the experiment with HCV replicon 1B, 10.07 with HCV replicon 2B (setting [1]) and 9.97 in the experiment with HCV replicon 1A Y93H (setting [2]).
Turning to `COC(=O)NC(C(=O)N1CCC[C@H]1c1ncc(-c2ccc3c(c2)cc2n3C(c3ccc4c(c3)OCCC4)Oc3cc(-c4cnc([C@@H]5CCCN5C(=O)[C@@H](NC(=O)OC)C(C)C)[nH]4)cc(F)c3-2)[nH]1)C1C[C@@H](C)O[C@H](C)C1` (single isomer, unassigned) [Compound 77], the pEC50 in the experiment with HCV replicon 1A (Hepatitis C virus, 72 h) is 11.82; in the experiment on HCV replicon 2B (setting [1]), 10.00; with HCV replicon 1A Y93H (setting [2]), 9.30.
As for `COC(=O)NC(C(=O)N1[C@@H]2C[C@@H]2C[C@H]1c1ncc(-c2ccc3c(c2)cc2n3C(c3ccc4c(c3)OCCC4)Oc3cc(-c4cnc([C@@H]5CCCN5C(=O)[C@@H](NC(=O)OC)C(C)C)[nH]4)cc(F)c3-2)[nH]1)C1CCO[C@H](C)C1` (single isomer, unassigned) [Compound 81], the pEC50 in the experiment with HCV replicon 1A (Hepatitis C virus, 72 h) was 11.70; in the experiment with HCV replicon 2B (setting [1]), 9.57; with HCV replicon 1A Y93H (setting [2]), 9.73.
For `COC(=O)NC(C(=O)N1CCC[C@H]1c1ncc(-c2ccc3c(c2)cc2n3C(c3ccc4c(c3)CCCO4)Oc3cc(-c4cnc([C@@H]5CCCN5C(=O)[C@@H](NC(=O)OC)C(C)C)[nH]4)cc(C)c3-2)[nH]1)C1C[C@@H](C)O[C@@H](C)C1` (single isomer, unassigned) [Compound 83], the negative-log EC50 (pEC50) is 11.41 in the experiment on HCV replicon 1A (Hepatitis C virus, 72 h); 9.80 in the experiment with HCV replicon 2B (setting [3]); 9.23 with HCV replicon 1A Y93H (Hepatitis C virus, 72 h, read-out: EC50 replicon 1A Y93H, Replicon Assay A).
Turning to `COC(=O)NC(C(=O)N1CCC[C@H]1c1ncc(-c2ccc3c(c2)cc2n3C(c3ccc4c(c3)CCCO4)Oc3cc(-c4cnc([C@@H]5CCCN5C(=O)[C@@H](NC(=O)OC)C(C)C)[nH]4)cc(C)c3-2)[nH]1)C1C[C@@H](C)O[C@@H](C)C1` (single isomer, unassigned) [Compound 84], the pEC50 with HCV replicon 1A was 11.70; with HCV replicon 2B (setting [1]) it was 9.71; in the experiment with HCV replicon 1A Y93H (setting [2]) it was 9.17.
As to `COC(=O)NC(C(=O)N1CCC[C@H]1c1ncc(-c2ccc3c(c2)cc2n3C(c3ccc4c(c3)OCCC4)Oc3cc(-c4cnc([C@@H]5CCCN5C(=O)[C@@H](NC(=O)OC)C(C)C)[nH]4)cc(C)c3-2)[nH]1)C1C[C@@H](C)O[C@@H](C)C1` (single isomer, unassigned) [Compound 85], the pEC50 with HCV replicon 1A (Hepatitis C virus, 72 h) is 11.57; in the experiment with HCV replicon 2B (setting [1]), 10.15; with HCV replicon 1A Y93H (setting [2]), 9.24.
Take `COC(=O)N[C@H](C(=O)N1CCC[C@H]1c1ncc(-c2cc(F)c3c(c2)OC(c2ccc4c(c2)OCCC4)n2c-3c(F)c3cc(-c4cnc([C@@H]5CCCN5C(=O)[C@@H](NC(=O)OC)C5CCOCC5)[nH]4)ccc32)[nH]1)C(C)C` (single isomer, unassigned) [Compound 91]: the pEC50 was 11.96 in the experiment on HCV replicon 1A (Hepatitis C virus, 72 h); 9.91 with HCV replicon 2B (setting [1]); 9.05 in the experiment with HCV replicon 1A Y93H (setting [2]).
